Source: paper PMC4428793, “MK571 inhibits phase-2 conjugation of flavonols by Caco-2/TC7 cells, but does not specifically inhibit their apical efflux^” (Biochemical Pharmacology, 2015)
Values joined by “and” are separate entries in the source; they are usually repeats but may differ in a detail not shown here. Identical values can stand only once.

Tests used:
[1] = tested on: UDP-β-D-glucuronosyl transferase (UDP-GT) activity in the Caco2 cell-free extracts; assay: Enzyme kinetics of kaempferol glucuronidation in Caco2 cell-free extracts (Km, Vmax, Ki); assay type: biochemical, human; conditions: substrate kaempferol 5–150 μM; estimated from reciprocal plots; read-out: Ki for inhibition of the synthesis of K-4′-O-GlcA
Description: Cells were grown until 21 days post confluent and washed and aspirated as described previously. The cells were then scraped into tubes and these tubes kept on ice at all times throughout the preparation procedure. Homogenisation buffer comprised of sodium phosphate buffer (50 mM adjusted to pH 6.5; 20 mL), two mini protease inhibitor cocktail tablets containing EDTA and perfabloc, dithiothreitol (30.8 mg), alamethacin (20 μL of a 22 μg/mL) solution from T. viride; and MgCl2 (3.5 mg). Cell-free homogenates were prepared by mixing cells with homogenisation buffer (50:50, vol/vol) and vortexing with glass beads in an eppendorf tube three times for 1 min over a 10 min period. […] The supernatant was removed and analysed via HPLC.
Estimates of initial rates (v) of formation of flavonol conjugates by UDP-β-D-glucuronosyl transferase (UDP-GT) activity in the Caco2 cell-free extracts were calculated for each concentration of S (S = kaempferol; [S] range 5–150 μM). […] The type of inhibition was determined by plotting 1/v versus 1/S for each of the inhibitor (MK571) concentrations tested and observing the location of the intersection of the lines, which also gave estimated values for Km and Vmax. […]

[2] = tested on: Caco-2 cell culture model; design: method as in PMID 12893842; conditions: 50 μM MK571; ref [39]; cited from earlier work
Caco-2 cells = conditions: cited from earlier work
Caco-2/TC7 cells = assay: Flavonol metabolism and transport experiments on Caco-2/TC7 transwell monolayers, effect of MK571; assay type: cell-based, human
Description: Cells were grown at 37 °C in a humidified incubator with 5% CO2 in Dulbecco Modified Eagle's Medium (DMEM) containing 1% non-essential amino acids, 1% L-glutamine, 100 IU/mL penicillin and 100 μg/mL streptomycin, 1 g/L glucose, and supplemented with 20% (v/v) heat inactivated fetal calf serum. Cells were passaged at 80% confluency, and seeded at 2–4 × 10^4 cells per cm^2 on 10 cm dishes (growing area 75 cm^2) or 12-well transwells (growing area of 1.1 cm^2). […] Toxicity of MK571 on Caco-2/TC7 cell monolayers was determined through comparison of pre- and post-loading TEER values of wells incubated with MK571.
Flavonol stocks (quercetin, kaempferol, galangin; 10 mM) were prepared in dimethylsulfoxide (DMSO) and stored at −20 °C. MK571 was dissolved in dimethyl sulfoxide (10 mM final concentration) and stored at −20 °C. Prior to the metabolism or transport experiments, cells were aspirated of media and washed three times with phosphate buffered saline (PBS). To foetal calf serum and phenol red-free DMEM was added ascorbic acid at a final concentration of 100 μM as well as MK571 at the desired concentration. For metabolism experiments, 10 mL of this media was added to the cells in 10 cm dishes. For transport experiments using transwells, 0.6 mL of this media was added to the apical compartment of the transwell and 1 mL was added to the basolateral compartment. Control wells received an equivalent dose of dimethyl sulfoxide as the treatment wells. Cells were incubated at 37 °C for 30 min, after which flavonols dissolved in dimethyl sulfoxide (kaempferol, galangin or quercetin) were added to the media of treatment wells at a final concentration of 40 or 100 μM, while control wells were treated with the dimethyl sulfoxide vehicle alone. Concentrations of quercetin were increased to 100 μM because instability of quercetin in media necessitated higher initial loading to maintain adequate cellular and media concentrations for uptake and metabolism of the flavonol. Control and treatment cells were incubated at 37 °C for the periods indicated in the results.
Following the required incubation period, media and cell fractions were harvested and analysed to identify and quantify flavonol metabolites using HPLC. Media was removed from the apical (0.5 mL) and basolateral (0.5 mL) compartments of transwells and added to 25 μL trifluoroacetic acid and 25 μL HPLC grade acetonitrile. Media from 10 cm dishes (1 mL) was removed and added to 50 μL trifluoroacetic acid and 25 μL HPLC grade acetonitrile. Cells were washed three times with cold (room temperature) phosphate buffered saline solution and scraped free of the dish surface. For transwells, 100 μL MilliQ water was added to the cells and the resulting cell suspension pipetted into 10 μL trifluoroacetic acid and 10 μL HPLC grade acetonitrile. For 10 cm dishes, the resulting cell suspension was pipetted into 25 μL trifluoroacetic acid and 25 μL HPLC grade acetonitrile. Samples were either analysed immediately or otherwise stored at −20 °C prior to HPLC analysis. Flavonols were stable during frozen storage and thawing (no significant losses up to 26 weeks).
Media samples were thawed where necessary and then mixed using a vortex mixer, centrifuged for 10 min at 14,000 × g using a micro centrifuge, and the supernatant removed and placed in an HPLC vial for analysis. Cell samples were vortex-mixed and then ultra-sonicated (sonic water bath) for 10 min, vortex mixed again and then centrifuged for 10 min at 14,000 × g using a micro-centrifuge, before removal of supernatant for HPLC analysis. Identification and quantification of individual flavonol metabolites was carried out using liquid chromatography–mass spectrometry and nuclear magnetic resonance analyses, as described previously. […]

Bcrp1 = tested on: Bcrp1; design: method as in PMID 15749994; conditions: Mrp2 deficient rats; ref [33]; cited from earlier work
[3] = 50 μM MK571, Caco-2 cells, ref Walle et al. [28]
[4] = 50 μM MK571, vs vehicle-only control, transwell monolayers
[5] = galangin 40 μM + 50 μM MK571 apical, 60 min
[6] = in the presence of MK571 (Table 1: 50 μM)
[7] = kaempferol 40 μM + 50 μM MK571 apical, 60 min
[8] = kaempferol 40 μM + 100 μM MK571 apical, 60 min
[9] = quercetin 100 μM + 50 μM MK571 apical, 60 min

Question: Which Ki [1] does the source give for `CN(C)C(=O)CCSC(SCCC(=O)O)c1cccc(/C=C/c2ccc3ccc(Cl)cc3n2)c1` (stereo not shown) [MK571] here?
Answer: 19.7 µM

Question: And the Apigenin sulfation [2]?
Answer: not inhibited

Question: What about the “Inhibition of apigenin glucuronidation” value [2] of the same compound?
Answer: 30–40%

Question: And the “Inhibition of chrysin glucuronide efflux” value (Caco-2 cells; [3])?
Answer: 71%

Question: And the “Inhibition of chrysin sulphate efflux” value (Caco-2 cells; [3])?
Answer: 25%

Question: What about the “Efflux of methylated sulphate conjugates and sulphate conjugates of epigallocatechin” value (Caco-2 cells; 50 μM, ref [35]) of the same compound?
Answer: substantially inhibited

Question: And the “Inhibition of apical efflux of epicatechin sulphate conjugates” value (Caco-2 cells; ref [36])?
Answer: > 50%

Question: What about the “Increase in galangin aglycone concentration of the cellular extract” value (Caco-2/TC7 cells; 50 μM MK571) of the same compound?
Answer: +180%

Question: What about the “Increase in kaempferol aglycone concentration of the cellular extract” value (Caco-2/TC7 cells; 50 μM MK571) of the same compound?
Answer: +182%

Question: What about the “Increase in quercetin aglycone concentration of the cellular extract” value (Caco-2/TC7 cells; 50 μM MK571) of the same compound?
Answer: +119%

Question: And the “Reduction in production of kaempferol sulphates” value (Caco-2/TC7 cells; 50 μM MK571)?
Answer: 50.8%

Question: What about the “Reduction in production of total kaempferol glucuronides” value (Caco-2/TC7 cells; 50 μM MK571) of the same compound?
Answer: 52.3%

Question: What about the “Reduction in apical efflux of kaempferol conjugates” value (Caco-2/TC7 cells; 50 μM MK571, vs no MK571, transwell monolayers) of the same compound?
Answer: 44% and 43.2%

Question: What about the “Reduction in apical efflux of galangin conjugates” value (Caco-2/TC7 cells; [4]) of the same compound?
Answer: 38% and 38.5%

Question: What about the “Reduction in apical efflux of quercetin conjugates” value (Caco-2/TC7 cells; [4]) of the same compound?
Answer: 37.1%

Question: And the “Increase in kaempferol aglycone concentration of the cellular extract” value (Caco-2/TC7 cells; 100 μM MK571)?
Answer: +229%

Question: And the “Reduction in production of kaempferol sulphates” value (Caco-2/TC7 cells; 100 μM MK571)?
Answer: 88.4%

Question: What about the “Reduction in production of total kaempferol glucuronides” value (Caco-2/TC7 cells; 100 μM MK571) of the same compound?
Answer: 67.2%

Question: What about the “Apical galangin conjugates, change vs no MK571” value (Caco-2/TC7 cells; [5]) of the same compound?
Answer: −38.5%

Question: And the “Apical galangin conjugates, rate” value (Caco-2/TC7 cells; [5])?
Answer: 1.789 nmol/h

Question: What about the “Basolateral galangin conjugates, change vs no MK571” value (Caco-2/TC7 cells; [5]) of the same compound?
Answer: −43.6%

Question: What about the “Basolateral galangin conjugates, rate” value (Caco-2/TC7 cells; [5]) of the same compound?
Answer: 2.279 nmol/h

Question: What about the “Cellular galangin conjugates, change vs no MK571” value (Caco-2/TC7 cells; [5]) of the same compound?
Answer: −28.7%

Question: What about the “Cellular galangin conjugates, rate” value (Caco-2/TC7 cells; [5]) of the same compound?
Answer: 0.004 nmol/h

Question: What about the “Total galangin conjugates, change vs no MK571” value (Caco-2/TC7 cells; [5]) of the same compound?
Answer: −41.4%

Question: What about the “Total galangin conjugates, rate” value (Caco-2/TC7 cells; [5]) of the same compound?
Answer: 4.072 nmol/h

Question: And the “Decrease in galangin glucuronides” value (Caco-2/TC7 cells; [6])?
Answer: 42.8%

Question: What about the “Decrease in galangin sulphates” value (Caco-2/TC7 cells; [6]) of the same compound?
Answer: 37.0%

Question: And the “Decrease in quercetin glucuronides” value (Caco-2/TC7 cells; [6])?
Answer: 56.5%

Question: And the “Decrease in quercetin sulphates” value (Caco-2/TC7 cells; [6])?
Answer: 39.6%

Question: What about the “Apical kaempferol conjugates, change vs no MK571” value (Caco-2/TC7 cells; [7]) of the same compound?
Answer: −43.2%

Question: What about the “Apical kaempferol conjugates, rate” value (Caco-2/TC7 cells; [7]) of the same compound?
Answer: 1.196 nmol/h

Question: What about the “Basolateral kaempferol conjugates, change vs no MK571” value (Caco-2/TC7 cells; [7]) of the same compound?
Answer: −56.7%

Question: And the “Basolateral kaempferol conjugates, rate” value (Caco-2/TC7 cells; [7])?
Answer: 1.484 nmol/h

Question: What about the “Cellular kaempferol conjugates, change vs no MK571” value (Caco-2/TC7 cells; [7]) of the same compound?
Answer: −20.0%

Question: And the “Cellular kaempferol conjugates, rate” value (Caco-2/TC7 cells; [7])?
Answer: 0.004 nmol/h

Question: What about the “Total kaempferol conjugates, change vs no MK571” value (Caco-2/TC7 cells; [7]) of the same compound?
Answer: −51.5%

Question: And the “Total kaempferol conjugates, rate” value (Caco-2/TC7 cells; [7])?
Answer: 2.684 nmol/h

Question: What about the “Apical kaempferol conjugates, change vs no MK571” value (Caco-2/TC7 cells; [8]) of the same compound?
Answer: −81.9%

Question: What about the “Apical kaempferol conjugates, rate” value (Caco-2/TC7 cells; [8]) of the same compound?
Answer: 0.382 nmol/h

Question: What about the “Basolateral kaempferol conjugates, change vs no MK571” value (Caco-2/TC7 cells; [8]) of the same compound?
Answer: −69.0%

Question: And the “Basolateral kaempferol conjugates, rate” value (Caco-2/TC7 cells; [8])?
Answer: 1.062 nmol/h

Question: What about the “Cellular kaempferol conjugates, change vs no MK571” value (Caco-2/TC7 cells; [8]) of the same compound?
Answer: −24.2%

Question: And the “Cellular kaempferol conjugates, rate” value (Caco-2/TC7 cells; [8])?
Answer: 0.003 nmol/h

Question: And the “Total kaempferol conjugates, change vs no MK571” value (Caco-2/TC7 cells; [8])?
Answer: −73.9%

Question: And the “Total kaempferol conjugates, rate” value (Caco-2/TC7 cells; [8])?
Answer: 1.447 nmol/h

Question: And the “Apical quercetin conjugates, change vs no MK571” value (Caco-2/TC7 cells; [9])?
Answer: −37.1%

Question: And the “Apical quercetin conjugates, rate” value (Caco-2/TC7 cells; [9])?
Answer: 0.706 nmol/h

Question: And the “Basolateral quercetin conjugates, change vs no MK571” value (Caco-2/TC7 cells; [9])?
Answer: −56.3%

Question: And the “Basolateral quercetin conjugates, rate” value (Caco-2/TC7 cells; [9])?
Answer: 1.275 nmol/h

Question: What about the “Cellular quercetin conjugates, change vs no MK571” value (Caco-2/TC7 cells; [9]) of the same compound?
Answer: −2.72%

Question: And the “Cellular quercetin conjugates, rate” value (Caco-2/TC7 cells; [9])?
Answer: 0.004 nmol/h

Question: What about the “Total quercetin conjugates, change vs no MK571” value (Caco-2/TC7 cells; [9]) of the same compound?
Answer: −50.9%

Question: And the “Total quercetin conjugates, rate” value (Caco-2/TC7 cells; [9])?
Answer: 1.985 nmol/h

Question: For `COc1ccc2c3c([nH]c2c1)[C@H](C=C(C)C)N1C(=O)[C@@H]2CCCN2C(=O)[C@@H]1C3` [FTC], which “Total plasma quercetin and isorhamnetin concentrations” value (Bcrp1) is on record?
Answer: twice that of controls
